Assays:
[1] = critical micelle concentration (CMC) by hydrophobic fluorescent staining with diphenylhexatriene (DPH); assay type: physicochemical
Source text: Methods of measuring CMC are not particularly limited, and methods widely known in the art may be used. For example, a fluorescence staining method using diphenylhexatriene (DPH) may be used.
To characterize PSAs of Preparation Examples 1 to 3 synthesized according to the synthetic method of Example 1; PSEs of Preparation Examples 4 to 7 synthesized according to the synthetic method of Example 2; TPS-Es and TPS-ELs of Preparation Examples 8 to 14 synthesized according to the synthetic method of Example 3; and TPS-As of Preparation Examples 15 to 17 synthesized according to the synthetic method of Example 4, the critical micellar concentrations (CMCs) of PSAs, PSEs and TPSs and the hydrodynamic radii (Rh) of formed micelles were measured.
(§1) Specifically, critical micellar concentrations (CMCs) were measured using hydrophobic fluorescent staining and diphenylhexatriene (DPH), and the hydrodynamic radii (Rh) of micelles formed by each compound at a concentration of 1.0 wt % were measured using dynamic light scattering (DLS). The results were compared with results obtained from an existing amphipathic molecule (detergent), DDM, and are shown in Table 1.

[2] = hydrodynamic radius of micelles by dynamic light scattering (DLS); assay type: physicochemical; details: compound at 1.0 wt %
Protocol: Methods of measuring the radius of micelles are not particularly limited, and methods widely known in the art may be used. For example, dynamic light scattering (DLS) may be used.
as §1
When measuring, each of PSAs, PSEs and TPSs was used at a concentration of 1.0 wt %.

[3] = biological target: T1, human β2 adrenergic receptor (β2AR) (Homo sapiens, UniProt P07550); assay: β2AR activity by [3H]-dihydroalprenolol radioactive ligand binding assay; assay type: biochemical; details: for long-term β2AR activity ([3H]-DHA binding): 3 or 5 days at room temperature
T1 construct: Flag; made in house
Protocol: The membrane protein stabilizing ability of receptors (mBBr-β2ARs) solubilized in PSAs or PSEs was evaluated by measuring the binding activity of the receptors to [^3H]-dihydroalprenolol ([^3H]-DHA).
Specifically, radioactive ligand binding assay was performed as follows. β2ARs purified with 0.1 wt % DDM was concentrated to about 10 mg/mL (approximately 200 μM). β2ARs purified with DDM were used to prepare a master binding mixture containing 10 nM [^3H]-dihydroalprenolol (DHA), which was dissolved in 0.2 wt % of DDM, PSA or PSE and supplemented with 0.5 mg/mL BSA. At a concentration of 0.2 pmol, the activity of the receptors purified with the amphipathic compounds was monitored at regular intervals over a 4-day incubation period. Protein samples were incubated on ice for 2 days and then at room temperature for 2 days. Receptor activity was measured by binding assay for dissolved radioactive ligands. The receptors purified with DDM or a novel formulation (PSA-C11, PSE-C11 or PSE-C13) were incubated with 10 nM [^3H]-DHA at room temperature for 30 minutes. The mixture was loaded onto a G-50 column, a solution passed through the column was collected in 1 mL of a binding buffer (100 mM NaCl and 20 mM HEPES (pH 7.5) supplemented with 0.5 mg/mL BSA and 20×CMC amphipathic compounds), and 15 mL of a scintillation fluid was added to the solution. Receptor-bound [^3H]-DHA was measured using a scintillation counter (Beckman). Non-specific binding of [^3H]-DHA was measured by adding 1 μM alprenolol (Sigma) to the same reaction mixture. The binding degree of the receptors to [^3H]-DHA was represented by a column graph.
The ability of TPSs (TPS-As, TPS-Es and TPS-ELs) to stabilize the structures of human β2 adrenergic receptors (β2ARs) and G protein-coupled receptors (GPCRs) was measured. That is, DDM-purified receptors were diluted with a buffer solution containing only each of the TPSs without cholesteryl hemisuccinate (CHS) or a buffer solution containing CHS and DDM. The final concentration of the compounds was CMC+0.2wt %, and the binding activity of the receptors to ligands was evaluated by measuring the degree of binding of the receptors to [^3H]-dihydroalprenolol ([^3H]-DHA).
Specifically, radioactive ligand binding assay was performed as follows. β2ARs were purified with 0.1 wt % DDM (D. M. Rosenbaum et al., Science, 2007, 318, 1266-1273.) and was concentrated to about 10 mg/mL (approximately 200 μM). β2ARs purified with DDM were used to prepare a master binding mixture containing 10 nM [^3H]-dihydroalprenolol (DHA), which was dissolved in 0.2% amphipathic compounds (DDM or TPSs) and supplemented with 0.5 mg/mL BSA. The activity of the receptors purified with the amphipathic compounds was monitored at regular intervals over a 3- to 5-day incubation period. The receptors purified with DDM or TPSs were incubated with 10 nM [^3H]-DHA at room temperature for 30 minutes. The mixture was loaded onto a G-50 column, a solution passed through the column was collected in 1 mL of a binding buffer (100 mM NaCl and 20 mM HEPES (pH 7.5) supplemented with 0.5 mg/mL BSA and 20×CMC of each amphipathic compound), and 15 mL of a scintillation fluid was added to the solution. Receptor-bound [^3H]-DHA was measured using a scintillation counter (Beckman). The binding degree of the receptors to [^3H]-DHA was represented by a column graph.

[4] = tested on: T4L-β2AR-Gs or β2AR-Gs complexes; assay: purification and stability of T4L-β2AR-Gs or β2AR-Gs complexes (analytical gel filtration, negative staining EM); set-up: species or system human; details: after incubation for 15 and 17 days
Protocol: The ability of PSE-C11 or TPS-E10L to purify and stabilize T4L-β2AR-Gs or β2AR-Gs complexes was measured using electron microscopy (EM) analysis.
Specifically, measurement of the ability of PSE-C11 for TPS-E10L to purify and stabilize T4L-β2AR-Gs or β2AR-Gs complexes was performed as follows. 100 μM T4L-β2AR solubilized in 0.1 wt % DDM was mixed with 120 μM Gs heterotrimers for 30 minutes. 0.5 units of apyrase (NEB) and 2 mM MgCl2 were added to the mixture, followed by a 1-hour incubation to form complexes. 1 wt % PSE-C11 or TPS-E10L was respectively added to the mixture to achieve a final concentration of 0.8%, and incubated for 30 minutes to allow DDM to be exchanged with PSE-C11 or TPS-E10L. […] Finally, proteins were eluted with a 0.05% (100×CMC) PSE-C11 or TPS-E10L buffer. Gel filtration was performed using a running buffer (20 mM HEPES (pH 7.5), 100 mM NaCl, 0.005% PSE-C11 or TPS-E10L, 1 μM BI, 100 μM TCEP) to purify T4L-β2AR-Gs complexes. To measure the stability of β2AR-Gs complexes present in PSE-C11 or TPS-E10L, analytical gel filtration was performed with running buffers of the same formulation at 12 hours, 1 day, 3 days, 7 days, and 15 days. After a 15 day-incubation, analytical gel filtration was performed using an amphiphilic compound pre-buffer having the same formulation as above without PSE-C11 or TPS-E10L.
In addition, negative staining EM analysis for T4L-β2AR-Gs or β2AR-Gs complexes present in PSE-C11 was performed as follows. Samples containing T4L-β2AR-Gs or β2AR-Gs were prepared to perform electron microscopy analysis using a conventional negative staining protocol (see Peisley, A. et al., G Protein-Coupled Receptors in Drug Discovery: Methods and Protocols, Methods in Molecular Biology, 1335, 29-38 (2015)), and imaging was performed by operating a Tecnai T12 electron microscope at 120 kV at room temperature. Images were recorded with a Gatan US4000 CCD camera at a 71,138×magnification with a defocus value of ˜[…].

[5] = biological target: T2, uric acid-xanthine/H+ symporter (UapA) (Emericella nidulans, UniProt Q07307, G411V); assay: thermal stability of UapA by CPM analysis; set-up: species or system Aspergillus nidulans; details: CMC+0.2 wt %, 40° C., 120 minutes
T2 construct: GFP; made in house; host or cells: Saccharomyces cerevisiae FGY217
Protocol: The ability of TPSs (TPS-As, TPS-Es and TPS-ELs) to stabilize the structure of uric acid-xanthine/H+ symporter (UapA) isolated from Aspergillus nidulans was measured. The structural stability of UapA was evaluated using a sulfhydryl-specific fluorophore, N-[4-(7-diethylamino-4-methyl-3-coumarinyl)phenyl]maleimide (CPM).
Specifically, UapAG411V1-11 (hereinafter, referred to as ‘UapA’) was expressed in a Saccharomyces cerevisiae FGY217 strain as a GFP fusion protein, and was isolated using a sample buffer (20 mM Tris (pH 7.5), 150 mM NaCl, 0.03% DDM, 1 mM xanthine). The transporter was concentrated to about 10 mg/mL using a 100 kDa molecular weight cut-off filter (Millipore). The transporter was diluted with a CMC+0.04 wt % or CMC+0.2 wt % buffer at a ratio of 1:150 in a Greiner 96-well plate containing one of TPS-As (TPS-A6, TPS-A7 or TPS-A8), TPS-Es (TPS-E6, TPS-E7 or TPS-E8), TPS-ELs (TPS-E8L, TPS-E9L, TPS-E10L or TPS-E11L), MNG-3 or DDM (control group). […] During incubation, fluorescence emission intensity was monitored using a microplate spectrophotometer set at excitation and emission wavelengths of 387 and 463 nm, respectively. The maximum value of fluorescence intensity was used to calculate the relative percentage of folded transporters during the incubation period. […]

T1 sequence (P07550 whole entry): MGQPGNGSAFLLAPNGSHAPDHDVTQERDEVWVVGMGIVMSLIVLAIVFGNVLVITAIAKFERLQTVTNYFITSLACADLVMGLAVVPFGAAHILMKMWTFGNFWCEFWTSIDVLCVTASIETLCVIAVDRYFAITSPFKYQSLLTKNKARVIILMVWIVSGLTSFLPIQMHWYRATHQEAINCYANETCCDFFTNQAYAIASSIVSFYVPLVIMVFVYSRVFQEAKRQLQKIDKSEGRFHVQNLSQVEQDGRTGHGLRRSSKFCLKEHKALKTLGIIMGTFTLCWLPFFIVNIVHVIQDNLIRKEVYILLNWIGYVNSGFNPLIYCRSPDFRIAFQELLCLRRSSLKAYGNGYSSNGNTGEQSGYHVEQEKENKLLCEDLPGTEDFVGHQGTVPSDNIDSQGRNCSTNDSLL
T2 sequence (Q07307 12-574 G411V): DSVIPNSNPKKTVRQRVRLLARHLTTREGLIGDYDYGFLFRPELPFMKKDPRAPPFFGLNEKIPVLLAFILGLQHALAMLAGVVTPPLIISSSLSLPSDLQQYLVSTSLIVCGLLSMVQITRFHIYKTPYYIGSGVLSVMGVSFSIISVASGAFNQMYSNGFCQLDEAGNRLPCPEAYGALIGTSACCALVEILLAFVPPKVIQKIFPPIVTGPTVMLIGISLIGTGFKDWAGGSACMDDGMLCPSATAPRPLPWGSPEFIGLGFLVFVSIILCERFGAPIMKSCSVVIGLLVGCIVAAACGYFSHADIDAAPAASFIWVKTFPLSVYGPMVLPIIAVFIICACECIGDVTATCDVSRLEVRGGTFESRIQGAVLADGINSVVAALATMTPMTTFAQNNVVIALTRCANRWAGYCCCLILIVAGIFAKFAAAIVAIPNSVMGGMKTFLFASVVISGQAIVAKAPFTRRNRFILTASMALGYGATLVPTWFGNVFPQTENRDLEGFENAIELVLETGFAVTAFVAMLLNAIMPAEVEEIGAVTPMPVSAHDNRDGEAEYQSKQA

initial receptor activity maintained ([3]; after 5 days of incubation at room temperature)	Structure (SMILES)	CMC [1]	CMC (wt %) [1]	Rh (nm), hydrodynamic radius of micelles [2]	long-term β2AR activity ([3H]-DHA binding) [3]	stability of β2AR-Gs complexes (analytical gel filtration) [4]	maintaining folding state of UapA (CPM) [5]
up to 90%	CCCCCCCCCCOCC(COCCCCCCCCCC)(COCCCCCCCCCC)CO[C@@H]1OC(COCCCO[C@@H]2OC(CO)[C@@H](O)C(O)C2O)[C@@H](OCCCO[C@@H]2OC(CO)[C@@H](O)C(O)C2O)C(OCCCO[C@@H]2OC(CO)[C@@H](O)C(O)C2O)C1OCCCO[C@@H]1OC(CO)[C@@H](O)C(O)C1O (some centres unmarked) [TPS-E10L]	~0.002 mM	~0.0003 wt %	4.8 ± 0.34 nm	significantly better than that of DDM	no separation of the complexes was observed at all	
	CCCCCCCCCCCOCC(COCCCCCCCCCCC)(COCCCCCCCCCCC)CO[C@@H]1OC(COCCCO[C@@H]2OC(CO)[C@@H](O)C(O)C2O)[C@@H](OCCCO[C@@H]2OC(CO)[C@@H](O)C(O)C2O)C(OCCCO[C@@H]2OC(CO)[C@@H](O)C(O)C2O)C1OCCCO[C@@H]1OC(CO)[C@@H](O)C(O)C1O (some centres unmarked) [TPS-E11L]	~0.001 mM	~0.0002 wt %	40.6 ± 4.4 nm	significantly better than that of DDM		the best effect
